Results reported in ChEMBL document CHEMBL5143637, “Design, synthesis and antibacterial activity against pathogenic mycobacteria of conjugated hydroxamic acids, hydrazides and O-alkyl/O-acyl protected hydroxamic derivatives” (Bioorg Med Chem Lett, 2022).
≈ marks a conversion by molar mass, not a printed value.

Experiments:
[1] = system: Mycobacteroides abscessus; test: Antimycobacterial activity against Mycobacterium abscessus CIP104536T with smooth morphotype assessed as inhibition of mycobacterial growth incubated for 3 to 5 days by resazurin microtiter assay; format: functional; details: time 3-5 day
[2] = system: Mycobacteroides abscessus; test: Antimycobacterial activity against Mycobacterium abscessus CIP104536T with rough morphotype assessed as inhibition of mycobacterial growth incubated for 3 to 5 days by resazurin microtiter assay; format: functional; details: time 3-5 day
Mycobacterium marinum = test: Antimycobacterial activity against Mycobacterium marinum ATCC BAA-535/M assessed as inhibition of mycobacterial growth incubated for 10 to 14 days by resazurin microtiter assay; format: functional; details: time 10-14 day
[3] = system: Mycobacterium tuberculosis; test: Antimycobacterial activity against Mycobacterium tuberculosis mc2 6230 assessed as inhibition of mycobacterial growth incubated for 10 to 14 days by resazurin microtiter assay; format: functional; details: time 10-14 day
BMDM = test: (§1) Cytotoxicity against C57BL/6 mouse BMDM cells assessed as reduction in cell viability measured after 24 hrs by resazurin dye based assay; format: toxicity; details: mouse, bmdm, 24 h
[4] = system: Mycolicibacterium smegmatis; test: Antimycobacterial activity against wild type Mycobacterium smegmatis mc2 155 assessed as inhibition of mycobacterial growth incubated for 3 to 5 days by resazurin microtiter assay; format: functional; details: time 3-5 day
[5] = system: Mycolicibacterium smegmatis; test: Antimycobacterial activity against Mycobacterium smegmatis mc2 155 harbouring pMyC empty vector assessed as inhibition of mycobacterial growth incubated for 3 to 5 days by resazurin microtiter assay; format: functional; details: time 3-5 day
[6] = system: Mycolicibacterium smegmatis; test: Antimycobacterial activity against Mycobacterium smegmatis mc2 155 harbouring pMyC::PDFMtb overexpression mutant assessed as inhibition of mycobacterial growth incubated for 3 to 5 days by resazurin microtiter assay; format: functional; details: time 3-5 day
[7] = Selectivity index, ratio of MIC50 for antimycobacterial activity against Mycobacterium smegmatis mc2 155 harbouring pMyC empty vector to MIC50 for antimycobacterial activity against wild type Mycobacterium smegmatis mc2 155; format: functional
[8] = Selectivity index, ratio of MIC90 for antimycobacterial activity against Mycobacterium smegmatis mc2 155 harbouring pMyC empty vector to MIC90 for antimycobacterial activity against wild type Mycobacterium smegmatis mc2 155; format: functional
[9] = Selectivity index, ratio of MIC50 for antimycobacterial activity against Mycobacterium smegmatis mc2 155 harbouring pMyC::PDFMtb overexpression mutant to MIC50 for antimycobacterial activity against wild type Mycobacterium smegmatis mc2 155; format: functional
[10] = Selectivity index, ratio of MIC90 for antimycobacterial activity against Mycobacterium smegmatis mc2 155 harbouring pMyC::PDFMtb overexpression mutant to MIC90 for antimycobacterial activity against wild type Mycobacterium smegmatis mc2 155; format: functional
[11] = Inhibition of Mycobacterium tuberculosis H37Rv PDF expressed in Escherichia coli using N-formyl-methionine-alanine-serine as substrate incubated for 2.5 mins by fluorescence based microplate reader analysis
[12] = as §1; format: toxicity; details: C57BL/6, mouse, BMDM cells (bone marrow-derived macrophages)
[13] = Cytotoxicity against mouse BMDM cells; format: toxicity, cell-based; details: BMDM cells (bone marrow-derived macrophages)
[14] = system: Mycobacterium tuberculosis; test: Antimycobacterial activity against Mycobacterium tuberculosis H37Rv assessed as inhibition of bacterial growth incubated for 8 days; format: functional; details: 192 h, time 8 day

Row | SMILES | MIC50 [1] [µg/mL] | MIC50 [2] [µg/mL] | MIC50 (Mycobacterium marinum) [µg/mL] | MIC90 (Mycobacterium marinum) [µg/mL] | MIC50 [3] [µg/mL] | MIC90 [3] [µg/mL] | MIC50 [4] [µg/mL] | MIC90 [4] [µg/mL] | MIC50 [5] [µg/mL] | MIC90 [5] [µg/mL] | MIC50 [6] [µg/mL] | MIC90 [6] [µg/mL] | Ratio [7] | Ratio [8] | Ratio [9] | Ratio [10] | other results
1 | Cl.O=C(/C=C/c1ccncc1)NO | > 100 | > 100 | 12.6 | 54 | 32.1 | 33.6 | – | – | – | – | – | – | – | – | – | – | CC50 (BMDM): < 10 µg/mL
2 | NC[C@H]1O[C@H](O[C@H]2[C@H](O)[C@@H](O[C@H]3O[C@H](CO)[C@@H](O)[C@H](N)[C@H]3O)[C@H](N)C[C@@H]2N)[C@H](O)[C@@H](O)[C@@H]1O [KANAMYCIN] | – | – | – | – | – | – | 0.4 (≈ 0.826 µM) | 0.94 (≈ 1.94 µM) | 0.48 (≈ 0.991 µM) | 1.07 (≈ 2.21 µM) | 0.49 (≈ 1.01 µM) | 0.87 (≈ 1.8 µM) | 1.2 | 1.14 | 1.23 | 0.93 | –
3 | CCCC[C@H](CN(O)C=O)C(=O)N1CCC[C@H]1C(=O)Nc1ccccn1 | – | – | – | – | – | – | – | – | – | – | – | – | – | – | – | – | IC50 [11]: 69.5 nM
4 | NNC(=O)/C=C/c1ccc(-c2ccccc2)cc1 | > 100 | 18.9 (≈ 79.3 µM) | 22.2 (≈ 93.2 µM) | 71.5 (≈ 300 µM) | 13.1 (≈ 55 µM) | 22 (≈ 92.3 µM) | 9.6 (≈ 40.3 µM) | 53.6 (≈ 225 µM) | 7.2 (≈ 30.2 µM) | 43.8 (≈ 184 µM) | 56.6 (≈ 238 µM) | > 200 | 0.75 | 0.75 | 5.9 | > 3.7 | MIC90 [2]: > 100 µg/mL; CC50 at 24 h [12]: 125 µg/mL (≈ 525 µM)
5 | CO[C@H]1/C=C/O[C@@]2(C)Oc3c(C)c(O)c4c(O)c(c(/C=N/N5CCN(C)CC5)c(O)c4c3C2=O)NC(=O)/C(C)=C\C=C\[C@H](C)[C@H](O)[C@@H](C)[C@@H](O)[C@@H](C)[C@H](OC(C)=O)[C@@H]1C [RIFAMPIN] | – | – | – | – | – | – | 0.76 (≈ 0.924 µM) | 0.76 (≈ 0.924 µM) | 0.57 (≈ 0.693 µM) | 2.83 (≈ 3.44 µM) | 0.63 (≈ 0.766 µM) | 2.4 (≈ 2.92 µM) | 0.75 | 1.09 | 0.83 | 0.93 | –
6 | NCC[C@H](O)C(=O)N[C@@H]1C[C@H](N)[C@@H](O[C@H]2O[C@H](CN)[C@@H](O)[C@H](O)[C@H]2O)[C@H](O)[C@H]1O[C@H]1O[C@H](CO)[C@@H](O)[C@H](N)[C@H]1O [AMIKACIN] | 2.3 (≈ 3.93 µM) | 4.3 (≈ 7.34 µM) | 0.62 (≈ 1.06 µM) | 1.7 (≈ 2.9 µM) | 0.24 (≈ 0.41 µM) | 0.37 (≈ 0.632 µM) | – | – | – | – | – | – | – | – | – | – | MIC90 [1]: 3.4 µg/mL (≈ 5.81 µM); MIC90 [2]: 5.9 µg/mL (≈ 10.1 µM); CC50 [13]: > 90 µg/mL
7 | NNC(=O)c1ccncc1 [ISONIAZID] | – | – | 2.8 (≈ 20.4 µM) | 9.2 (≈ 67.1 µM) | 0.07 (≈ 0.51 µM) | 0.11 (≈ 0.802 µM) | 1.4 (≈ 10.2 µM) | 3.1 (≈ 22.6 µM) | 1.3 (≈ 9.48 µM) | 2.7 (≈ 19.7 µM) | 1.2 (≈ 8.75 µM) | 2.5 (≈ 18.2 µM) | 0.9 | 0.86 | 0.84 | 0.8 | MIC [14]: 0.1 µg/mL (≈ 0.729 µM); CC50 [13]: > 20 µg/mL
